Assay results from US10568854B2, “Compositions and methods for treating kabuki syndrome and related disorders” (THE JOHNS HOPKINS UNIVERSITY, priority 2014, dated 2020).
“Also recorded” adds a separate entry of the source.

What was measured:
[1] = tested on: H3K4me3 indicator (H3K4 trimethylation machinery activity); experiment: H3K4me3 indicator reporter assay, FACS; format: cell-based; conditions: FIG. 17F
Excerpt: Design of the indicator constructs. A genetically encoded histone reporter allele system has been developed which can be used to monitor activity of any histone maintenance machinery component in live cells. Previously, FRET based epigenetic activity systems have been created (Lin and Ting (2004) Angew Chem Int Ed Engl. 24;43 (22):2940-3; Lin et al. (2004) J. Am. Chem. Soc. 19;126(19):5982-3; U.S. Pat. No. 7,056,683). However, FRET-based assays need a complex technological setup which is not widely available and FRET-based assays have been much more difficult to introduce into transgenic mouse models. […] The particular construct design is based on a circularly permutated green fluorescent protein (GFP) that lacks fluorescence unless the two parts of GFP are brought into close proximity by external forces (Baird et al. (1999) Proc. Natl. Acad. Sci. U.S.A. 28;96(20):11241-6). […]
An H3K4 trimethylation reporter was also created. […] The activity of the epigenetic modification system can be quantified through fluorescence.
Epigenetic reporter alleles: Epigenetic reporter alleles were synthesized (OriGene, Rockville, Md.) using published sequences for component elements (Baird et al. (1999) Proc. Nail. Acad. Sci. 96:11241-6; Souslova et al. (2007) BMC Biotechnol. 7:37). […] FACS data were analyzed using FlowJo (Tree Star Inc, Ashland, Oreg.). […]

[2] = tested on: H3K4 trimethylation activity in Kmt2d^+/βGeo and Kmt2d^+/+ MEFs; experiment: H3K4me3 indicator in murine embryonic fibroblasts (MEFs); format: cell-based, mouse
Excerpt: An H3K4 trimethylation reporter was also created. This reporter is based on the H3 tail on one end and the TBP associated factor III (TAFIII) homeodomain on the other end; the TAFIII homeodomain only identifies and binds to trimethylated K4 on H3. When the H3K4 site gets trimethylated, the TAFIII homeodomain can bind to the modified H3 tail and bring the two parts of the separated GFP in close proximity. The activity of the epigenetic modification system can be quantified through fluorescence.
Epigenetic reporter alleles: Epigenetic reporter alleles were synthesized (OriGene, Rockville, Md.) using published sequences for component elements (Baird et al. (1999) Proc. Nail. Acad. Sci. 96:11241-6; Souslova et al. (2007) BMC Biotechnol. 7:37). Single nucleotide mutations were created using the QuickChange Lightening kit (Agilent Technologies Inc, Santa Clara, Calif.). For H4ac indicator, K5R, K8R, K12R, K16R and K20R (MUT indicator) were introduced. For H3K4me3 indicator, K4Q and D890A/W891A and M882A (three separate constructs) were introduced. For transient transfections, mouse embryonic fibroblasts (see below) were transfected with Fugene HD (Promega, Madison, Wis.), 48 hours prior to FACS. […] For drug stimulation, drug was added to the media 24 hours prior to FACS. For stable transfections in T293 (American Type Culture Collection) cells, 10 μg/ml of Blastocidin (Life Technologies, Carlsbad, Calif.) was added to the media for several weeks. For stable transfection in MEFs, the reporter was transferred to a ViraPower Lentiviral Expression System (Life Technologies, Carlsbad, Calif.). After selection with Blastocidin, the drug of interest was added 24 hours prior to FACS. SAHA, AR-42 and MS275 were purchased from Selleck (Selleck Chemicals, Houston, Tex.). […] FACS data were analyzed using FlowJo (Tree Star Inc, Ashland, Oreg.). A plasmid expressing HDAC3 was acquired from Addgene (Cambridge, Mass., plasmid 13819) and transfected into a stable cell line carrying the H4 acetyl reporter allele.

[3] = tested on: H3K4me3 in the GCL; experiment: Immunofluorescence of H3K4me3 in dentate gyrus GCL (AR-42 treated mice); format: in vivo, mouse
Excerpt: Animals: Kmt2d^+/βGeo mice, also named Mll2Gt^(RRt024)Byg, were acquired from Bay Genomics (University of California). All experimental mice were on a mixed C57BL/6J and 129/SvEv background. Expected Mendelian ratios were observed when heterozygous animals were bred to wild-type. In heterozygous crosses, however, there was uniform embryonic lethality of homozygotes by ED12, the earliest developmental stage assayed. For treatment with AR-42 mice were orally gavaged daily with drug (Selleck Chemicals, Houston, Tex.) solubilized in vehicle (0.5% methylcellulose, 0.1% Tween-80, water) or with vehicle alone. Drug delivery information was kindly provided by Drs. […] For quantification of DCX positive cells, doses of 0, 5, 10 and 25 mg/kg/day were used. […] Maxillary protrusion was evaluated by ten investigators blinded to genotype and they were asked to rate maxillary protrusion on radiographs as either large (2) or small (1). […]
Confocal microscopy: Z-stack images of slides were taken at either 10× using Zeiss Axiovert 200 with 510-Meta confocal module (Carl Zeiss, Jena, GER) or 25× using Zeiss AxioExaminer with 710NLO-Meta multiphoton (Carl Zeiss, Jena, GER). From 10× pictures, the GCL was highlighted and fluorescent intensities for both DAPI and H3K4me3 were measured at the midpoint of the entire z-stack (Zen software, Carl Zeiss, Jena, GER) with the value for Kmt2d^+/+ animals set equal to one. […]

CC(C)[C@H](C(=O)Nc1ccc(C(=O)NO)cc1)c1ccccc1 [AR-42, (S)—N-hydroxy-4-(3-methyl-2-phenylbutanamido)benzamide]
H3K4me3 indicator response to increasing levels of drug [1]: dose dependent response | cell numbers ([1]; higher doses): decreased cell numbers at higher doses | dose at which Kmt2d^+/βGeo MEFs achieve untreated wild-type levels of H3K4me3 indicator activity ([2]; Kmt2d^+/βGeo MEFs): 5 µM | H3K4 trimethylation activity ([2]; Kmt2d^+/βGeo cells treated with HDAC inhibitor): enhanced | H3K4me3 indicator activity in MEFs ([2]; both genotypes (Kmt2d^+/βGeo, Kmt2d^+/+)): dose-dependent response | H3K4me3 in the GCL ([3]; 25 mg/kg/day, oral gavage, two weeks): increased H3K4 trimethylation; also recorded: increased H3K4me3 | H3K4me3 in the GCL ([3]; 5 and 10 mg/kg/day, both genotypes): dose-dependent increase in H3K4me3
